Test results: patent US20240287007A1, “N-(1,3,4-OXADIAZOL-2-YL)PHENYLCARBOXAMIDES AS HERBICIDES” (BAYER AKTIENGESELLSCHAFT, priority 2021, published 2024)

Legend:
Type in all cases: in vivo
AVEFA (Avena fatua) [1] = assay: Post-emergence herbicidal action against AVEFA; conditions: 80 g/ha, visual assessment after about 3 weeks
Protocol: (§1) Seeds of monocotyledonous and dicotyledonous weed and crop plants are laid out in sandy loam soil in wood-fiber pots, covered with soil and cultivated in a greenhouse under good growth conditions. 2 to 3 weeks after sowing, the trial plants are treated at the one-leaf stage. The compounds of the invention, formulated in the form of wettable powders (WP) or as emulsion concentrates (EC), are then sprayed onto the green parts of the plants as aqueous suspension or emulsion at a water application rate equating to 600 to 800 l/ha with addition of 0.2% wetting agent. After the test plants have been left to stand in the greenhouse under optimal growth conditions for about 3 weeks, the action of the preparations is assessed visually in comparison to untreated controls (herbicidal action in percent (%): 100% activity=the plants have died, 0% activity=like control plants).

KCHSC (Kochia scoparia) [2] = assay: Pre-emergence herbicidal effect against KCHSC; conditions: scored visually after 3 weeks
Description: (§2) Seeds of monocotyledonous and dicotyledonous weed plants and crop plants are laid out in sandy loam soil in wood-fiber pots and covered with soil. The compounds of the invention, formulated in the form of wettable powders (WP) or as emulsion concentrates (EC), are then applied to the surface of the covering soil as aqueous suspension or emulsion at a water application rate equating to 600 to 800 l/ha with addition of 0.2% wetting agent. After the treatment, the pots are placed in a greenhouse and kept under good growth conditions for the trial plants. The damage to the test plants is scored visually after a test period of 3 weeks by comparison with untreated controls (herbicidal activity in percent (%): 100% activity=the plants have died, 0% activity=like control plants).

[3] = tested on: AMARE (Amaranthus retroflexus); assay: Post-emergence herbicidal action against AMARE; conditions: visual assessment after about 3 weeks
Protocol: as §1

[4] = tested on: ABUTH (Abutylon threophrasti); assay: Post-emergence herbicidal action against ABUTH; conditions: visual assessment after about 3 weeks
Protocol: as §1

[5] = tested on: MATIN (Matricaria inodora); assay: Post-emergence herbicidal action against MATIN; conditions: visual assessment after about 3 weeks
Protocol: as §1

AVEFA (Avena fatua) [6] = assay: Pre-emergence herbicidal effect against AVEFA; conditions: 80 g/ha, scored visually after 3 weeks
Description: as §2

VERPE (Veronica persica) [7] = assay: Pre-emergence herbicidal effect against VERPE; conditions: scored visually after 3 weeks
Description: as §2

[8] = tested on: MATIN (Matricaria inodora); assay: Pre-emergence herbicidal effect against MATIN; conditions: scored visually after 3 weeks
Description: as §2

VIOTR (Viola tricolor) [9] = assay: Post-emergence herbicidal action against VIOTR; conditions: visual assessment after about 3 weeks
Protocol: as §1

[10] = tested on: ABUTH (Abutylon threophrasti); assay: Pre-emergence herbicidal effect against ABUTH; conditions: scored visually after 3 weeks
Description: as §2

[11] = tested on: DIGSA (Digitaria sanguinalis); assay: Pre-emergence herbicidal effect against DIGSA; conditions: scored visually after 3 weeks
Description: as §2

[12] = tested on: ECHCG (Echinochloa crus-galli); assay: Pre-emergence herbicidal effect against ECHCG; conditions: scored visually after 3 weeks
Description: as §2

VIOTR (Viola tricolor) [13] = assay: Pre-emergence herbicidal effect against VIOTR; conditions: scored visually after 3 weeks
Description: as §2

LOLRI (Lolium rigidum) = assay: Pre-emergence herbicidal effect against LOLRI; conditions: 80 g/ha, scored visually after 3 weeks
Description: as §2

[14] = tested on: PHBPU (Pharbitis purpurea); assay: Pre-emergence herbicidal effect against PHBPU; conditions: 80 g/ha, scored visually after 3 weeks
Description: as §2

[15] = tested on: PHBPU (Pharbitis purpurea); assay: Post-emergence herbicidal action against PHBPU; conditions: visual assessment after about 3 weeks
Protocol: as §1

SETVI (Setaria viridis) [16] = assay: Post-emergence herbicidal action against SETVI; conditions: visual assessment after about 3 weeks
Protocol: as §1

[17] = tested on: DIGSA (Digitaria sanguinalis); assay: Post-emergence herbicidal action against DIGSA; conditions: visual assessment after about 3 weeks
Protocol: as §1

SETVI (Setaria viridis) [18] = assay: Pre-emergence herbicidal effect against SETVI; conditions: scored visually after 3 weeks
Description: as §2

[19] = tested on: ECHCG (Echinochloa crus-galli); assay: Post-emergence herbicidal action against ECHCG; conditions: visual assessment after about 3 weeks
Protocol: as §1

[20] = tested on: AMARE (Amaranthus retroflexus); assay: Pre-emergence herbicidal effect against AMARE; conditions: scored visually after 3 weeks
Description: as §2

VERPE (Veronica persica) [21] = assay: Post-emergence herbicidal action against VERPE; conditions: visual assessment after about 3 weeks
Protocol: as §1

KCHSC (Kochia scoparia) [22] = assay: Post-emergence herbicidal action against KCHSC; conditions: visual assessment after about 3 weeks
Protocol: as §1

CS(=O)(=O)c1c(OC(F)F)ccc(C(=O)Nc2nnco2)c1Cl [Example 1-25, 2-chloro-4-(difluoromethoxy)-3-(methylsulfonyl)-N-(1,3,4-oxadiazol-2-yl)benzamide]
Post-emergence effect at 80 g/ha against AVEFA in % (AVEFA (Avena fatua) [1]): 100%
Pre-emergence effect at 20 g/ha against KCHSC in % (KCHSC (Kochia scoparia) [2]; 20 g/ha): 100%
Pre-emergence effect at 80 g/ha against KCHSC in % (KCHSC (Kochia scoparia) [2]; 80 g/ha): 100%
Post-emergence effect at 20 g/ha against AMARE in % ([3]; 20 g/ha): 100%
Post-emergence effect at 80 g/ha against AMARE in % ([3]; 80 g/ha): 100%
Post-emergence effect at 20 g/ha against ABUTH in % ([4]; 20 g/ha): 100%
Post-emergence effect at 80 g/ha against ABUTH in % ([4]; 80 g/ha): 100%
Post-emergence effect at 20 g/ha against MATIN in % ([5]; 20 g/ha): 100%
Post-emergence effect at 80 g/ha against MATIN in % ([5]; 80 g/ha): 100%
Pre-emergence effect at 80 g/ha against A VEFA in % (AVEFA (Avena fatua) [6]): 90%
Pre-emergence effect at 20 g/ha against VERPE in % (VERPE (Veronica persica) [7]; 20 g/ha): 90%
Pre-emergence effect at 80 g/ha against VERPE in % (VERPE (Veronica persica) [7]; 80 g/ha): 100%
Pre-emergence effect at 20 g/ha against MATIN in % ([8]; 20 g/ha): 100%
Pre-emergence effect at 80 g/ha against MATIN in % ([8]; 80 g/ha): 100%
Post-emergence effect at 20 g/ha against VIOTR in % (VIOTR (Viola tricolor) [9]; 20 g/ha): 100%
Post-emergence effect at 80 g/ha against VIOTR in % (VIOTR (Viola tricolor) [9]; 80 g/ha): 100%
Pre-emergence effect at 20 g/ha against ABUTH in % ([10]; 20 g/ha): 100%
Pre-emergence effect at 80 g/ha against ABUTH in % ([10]; 80 g/ha): 100%
Pre-emergence effect at 20 g/ha against DIGSA in % ([11]; 20 g/ha): 100%
Pre-emergence effect at 80 g/ha against DIGSA in % ([11]; 80 g/ha): 100%
Pre-emergence effect at 20 g/ha against ECHCG in % ([12]; 20 g/ha): 100%
Pre-emergence effect at 80 g/ha against ECHCG in % ([12]; 80 g/ha): 100%
Pre-emergence effect at 20 g/ha against VIOTR in % (VIOTR (Viola tricolor) [13]; 20 g/ha): 100%
Pre-emergence effect at 80 g/ha against VIOTR in % (VIOTR (Viola tricolor) [13]; 80 g/ha): 100%
Pre-emergence effect at 80 g/ha against LOLRI in % (LOLRI (Lolium rigidum)): 90%
Pre-emergence effect at 80 g/ha against PHBPU in % [14]: 90%
Post-emergence effect at 20 g/ha against PHBPU in % ([15]; 20 g/ha): 100%
Post-emergence effect at 80 g/ha against PHBPU in % ([15]; 80 g/ha): 100%
Post-emergence effect at 20 g/ha against SETVI in % (SETVI (Setaria viridis) [16]; 20 g/ha): 100%
Post-emergence effect at 80 g/ha against SETVI in % (SETVI (Setaria viridis) [16]; 80 g/ha): 100%
Post-emergence effect at 20 g/ha against DIGSA in % ([17]; 20 g/ha): 100%
Post-emergence effect at 80 g/ha against DIGSA in % ([17]; 80 g/ha): 100%
Pre-emergence effect at 20 g/ha against SETVI in % (SETVI (Setaria viridis) [18]; 20 g/ha): 100%
Pre-emergence effect at 80 g/ha against SETVI in % (SETVI (Setaria viridis) [18]; 80 g/ha): 100%
Post-emergence effect at 20 g/ha against ECHCG in % ([19]; 20 g/ha): 80%
Post-emergence effect at 80 g/ha against ECHCG in % ([19]; 80 g/ha): 100%
Pre-emergence effect at 20 g/ha against AMARE in % ([20]; 20 g/ha): 100%
Pre-emergence effect at 80 g/ha against AMARE in % ([20]; 80 g/ha): 100%
Post-emergence effect at 20 g/ha against VERPE in % (VERPE (Veronica persica) [21]; 20 g/ha): 90%
Post-emergence effect at 80 g/ha against VERPE in % (VERPE (Veronica persica) [21]; 80 g/ha): 100%
Post-emergence effect at 20 g/ha against KCHSC in % (KCHSC (Kochia scoparia) [22]; 20 g/ha): 100%
Post-emergence effect at 80 g/ha against KCHSC in % (KCHSC (Kochia scoparia) [22]; 80 g/ha): 100%
